Results taken from patent publication US20230321187A1, “OCTOPUS-DERIVED PEPTIDE OCTOPROMYCIN HAVING ANTIBACTERIAL AND ANTI-BIOFILM ACTIVITY AGAINST ACINETOBACTER BAUMANNII” (priority 2020, published 2023).

How the values were obtained:
mouse red blood cells = assay type: cell-based
Method: Systemic application of octopromycin as an antibiotic requires low toxicity to red blood cells. Accordingly, an in vitro hemolysis assay was performed using mouse red blood cells […].
The hemolytic activity of the peptide was evaluated using mouse red blood cells (RBC). The RBCs were washed 3 times with phosphate buffered saline (PBS) until the supernatant was clear. Different concentrations of octopromycin (0, 25, 50, 100, 200, 300 μg/mL) were added to 1.5 ml Eppendorf tubes. The RBCs were added at a final concentration of 8% (v/v) in a total volume of 500 μL. The RBCs were incubated for 1 hour, and then centrifuged for 10 minutes and the absorbance of the supernatant was measured at 414 nm.
Percent hemolysis was calculated using Equation:
Hemolysis (%)=(A414 of Peptide−A414 of PBS)/(A414 of Triton−A414 of PBS)×100

A. baumannii [1] = assay: Propidium iodide (PI) uptake / FDA staining membrane permeability assay (CLSM); assay type: cell-based, Acinetobacter baumannii; conditions: 10 μg/mL, positive control
Method: Propidium iodide (PI) uptake assay was performed to evaluate an effect of octopromycin on association with the membrane permeability and apoptosis of A. baumannii. The PI was a red fluorescent nuclear and chromosome counter dye that indicated changes in cell membrane permeability, and was used to detect the presence of dead cells and simultaneously observe live cells by observing green fluorescence (FDA). A. baumannii treated with octopromycin at MIC; 50 μg/mL and MBC; 200 μg/mL levels and control cell suspensions were centrifuged (5000 rpm for 2 minutes), washed with PBS and the pellets were suspended in PBS. Subsequently, the cells were cultured with 20 μg/mL of PI (Sigma Aldrich, USA) and 8 μg/mL of FDA (Sigma Aldrich, USA) at 25° C. for 30 minutes in the dark, and finally, the remaining dye was washed with PBS. Finally, a 5 μL drop of each suspension was placed on a cover slip and fluorescence images were observed using a CLSM integrated with a scan head on an Axiovert 200M inverted microscope (Carl Zeiss, Germany).

A. baumannii biofilm = assay: microbe, parasite or virus in culture; assay type: cell-based; conditions: Acinetobacter baumannii; 10 μg/mL, positive control; read-out: biofilm formation inhibition
Method: In order to investigate an effect of octopromycin on the biofilm of A. baumannii, analysis for biofilm formation inhibition and eradication was performed.
To examine the inhibitory effect of an octopromycin peptide on biofilm formation, A. baumannii was cultured in TSB. The bacteria were diluted to 5×10^5 CFU/mL in a TSB medium, then 97.5 mL and 90 mL of bacterial suspensions were mixed with 2.5 mL and 10 mL of peptides, respectively, to reach 50 μg/mL (MIC) and 200 μg/mL (MBC), and cultured on a 96-well plate for 24 hours. Then, the supernatant was carefully removed, and the formed biofilm was fixed with 100% methanol for 10 minutes. After methanol was removed, the biofilm was stained with 0.1% crystal violet for 30 minutes. Subsequently, the plate was washed 3 times with distilled water. Finally, the biofilm was completely dissolved in 95% ethanol and absorbance was measured at 495 nm using a microplate reader (Bio-Rad, USA).

A. baumannii [2] = assay: Time-kill kinetics (OD 595 nm); assay type: cell-based, Acinetobacter baumannii; conditions: 10 μg/mL
Method: The MIC and MBC levels of octopromycin in A. baumannii were determined using media dilution tests and subcultures, respectively, according to the guidelines of the Clinical and Laboratory Standards Institute (CLSI, 2008 M27-A3). Several concentrations of octopromycin (0, 5, 10, 25, 50, 100, and 200 μg/mL) were tested as standard antibiotics (positive control) together with chloramphenicol (10 μg/mL, Sigma-Aldrich, USA) acting on A. baumannii growth and the MBC of chloramphenicol was confirmed according to the same procedure. The MIC was determined as the minimum concentration required to inhibit visual growth of A. baumannii. […] For analysis of time-kill kinetics, A. baumannii was cultured with octopromycin at various concentrations (0, 25, 50, 100, and 200 μg/mL) in the TSA medium at 25° C., and at different time intervals (0, 3, 6, 9, 12, 18, and 21 h), the absorbance was measured at 595 nm using a microplate reader (Bio-Rad, Saint Louis, USA) to confirm an inhibitory effect after culturing.

Row | Compound | hemolysis (mouse red blood cells) | membrane permeability (PI/FDA staining) (A. baumannii [1]) | inhibition at 10 µg/mL (A. baumannii biofilm) | growth inhibition (time-kill kinetics) (A. baumannii [2])
1 | Triton X-100 | 100% | – | – | –
2 | O=C(N[C@H](CO)[C@H](O)c1ccc([N+](=O)[O-])cc1)C(Cl)Cl [chloramphenicol, reference compound] | – | high membrane permeability | 85.9% | growth inhibition was similar to that of 50 μg/mL of octopromycin
